# Key:
# Test in all cases: radiometric filter-binding kinase assay
# BRSK1 (human) = BRSK1 (human) (UniProt Q8TDC3)
# MAP3K11 (human) = MAP3K11 (human) (UniProt Q16584)
# FLT1 (human) = FLT1 (human) (UniProt P17948)
# FGFR1 (human) = FGFR1 (human) (UniProt P11362)
# RPS6KA3 KD1 KD2 (human) = RPS6KA3 KD1 KD2 (human) (UniProt P51812)
# MAP3K7 TAB1 (human) = MAP3K7 TAB1 (human) (UniProt Q15750+O43318)
# MARK4 (human) = MARK4 (human) (UniProt Q96L34)
# INSRR (human) = INSRR (human) (UniProt P14616)
# MAPK8 (human) = MAPK8 (human) (UniProt P45983)
# MAPK12 (human) = MAPK12 (human) (UniProt P53778)
# RIPK2 (human) = RIPK2 (human) (UniProt O43353)
# EPHA4 (human) = EPHA4 (human) (UniProt P54764)
# MYLK (human) = MYLK (human) (UniProt Q15746)
# INSR (human) = INSR (human) (UniProt P06213)
# CSNK1D (human) = CSNK1D (human) (UniProt P48730)
# BRSK2 (human) = BRSK2 (human) (UniProt Q8IWQ3)
# SYK (human) = SYK (human) (UniProt P43405)
# PLK1 (human) = PLK1 (human) (UniProt P53350)
# PIM3 (human) = PIM3 (human) (UniProt Q86V86)
# CDK2 CCNA2 (human) = CDK2 CCNA2 (human) (UniProt P20248+P24941)
# [1] = system: SGK1 (human), O00141 [S422D]
# PIM1 (human) = PIM1 (human) (UniProt P11309)
# MAP2K2 (human) = MAP2K2 (human) (UniProt P36507)
# [2] = system: RPS6KB1 (human), P23443 [T412E]
# [3] = system: PAK2 (human), Q13177 [T402E]
# CSK (human) = CSK (human) (UniProt P41240)
# MAPKAPK3 (human) = MAPKAPK3 (human) (UniProt Q16644)
# EPHB2 (human) = EPHB2 (human) (UniProt P29323)
# JAK2 JH1 JH2 (human) = JAK2 JH1 JH2 (human) (UniProt O60674)
# TTK (human) = TTK (human) (UniProt P33981)
# MELK (human) = MELK (human) (UniProt Q14680)
# IRAK4 (human) = IRAK4 (human) (UniProt Q9NWZ3)
# AURKA (human) = AURKA (human) (UniProt O14965)
# TBK1 (human) = TBK1 (human) (UniProt Q9UHD2)
# Sequence of MAP3K11 (human) (Q16584 whole entry, looked up): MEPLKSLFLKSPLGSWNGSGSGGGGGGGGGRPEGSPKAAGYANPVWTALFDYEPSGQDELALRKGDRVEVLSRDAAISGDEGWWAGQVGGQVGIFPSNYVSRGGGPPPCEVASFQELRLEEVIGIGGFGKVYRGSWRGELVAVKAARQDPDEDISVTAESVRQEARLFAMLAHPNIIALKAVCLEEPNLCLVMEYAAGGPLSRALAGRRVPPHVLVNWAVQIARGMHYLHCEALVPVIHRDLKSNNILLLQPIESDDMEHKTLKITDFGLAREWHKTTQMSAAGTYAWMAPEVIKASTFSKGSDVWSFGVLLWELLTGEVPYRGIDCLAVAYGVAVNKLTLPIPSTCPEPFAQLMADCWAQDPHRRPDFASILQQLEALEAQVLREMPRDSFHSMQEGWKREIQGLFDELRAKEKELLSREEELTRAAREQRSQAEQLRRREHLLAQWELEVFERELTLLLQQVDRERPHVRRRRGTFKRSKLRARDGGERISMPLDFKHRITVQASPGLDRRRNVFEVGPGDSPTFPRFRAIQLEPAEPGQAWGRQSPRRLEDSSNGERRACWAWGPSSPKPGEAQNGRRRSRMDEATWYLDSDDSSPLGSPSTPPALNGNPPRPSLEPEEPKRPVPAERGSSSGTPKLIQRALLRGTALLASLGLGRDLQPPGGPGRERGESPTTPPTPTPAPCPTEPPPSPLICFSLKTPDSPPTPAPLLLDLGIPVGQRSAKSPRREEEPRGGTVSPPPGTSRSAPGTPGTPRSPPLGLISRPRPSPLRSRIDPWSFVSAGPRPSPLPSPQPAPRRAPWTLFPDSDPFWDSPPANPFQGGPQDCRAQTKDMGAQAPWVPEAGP
# Sequence of MARK4 (human) (Q96L34 whole entry, looked up): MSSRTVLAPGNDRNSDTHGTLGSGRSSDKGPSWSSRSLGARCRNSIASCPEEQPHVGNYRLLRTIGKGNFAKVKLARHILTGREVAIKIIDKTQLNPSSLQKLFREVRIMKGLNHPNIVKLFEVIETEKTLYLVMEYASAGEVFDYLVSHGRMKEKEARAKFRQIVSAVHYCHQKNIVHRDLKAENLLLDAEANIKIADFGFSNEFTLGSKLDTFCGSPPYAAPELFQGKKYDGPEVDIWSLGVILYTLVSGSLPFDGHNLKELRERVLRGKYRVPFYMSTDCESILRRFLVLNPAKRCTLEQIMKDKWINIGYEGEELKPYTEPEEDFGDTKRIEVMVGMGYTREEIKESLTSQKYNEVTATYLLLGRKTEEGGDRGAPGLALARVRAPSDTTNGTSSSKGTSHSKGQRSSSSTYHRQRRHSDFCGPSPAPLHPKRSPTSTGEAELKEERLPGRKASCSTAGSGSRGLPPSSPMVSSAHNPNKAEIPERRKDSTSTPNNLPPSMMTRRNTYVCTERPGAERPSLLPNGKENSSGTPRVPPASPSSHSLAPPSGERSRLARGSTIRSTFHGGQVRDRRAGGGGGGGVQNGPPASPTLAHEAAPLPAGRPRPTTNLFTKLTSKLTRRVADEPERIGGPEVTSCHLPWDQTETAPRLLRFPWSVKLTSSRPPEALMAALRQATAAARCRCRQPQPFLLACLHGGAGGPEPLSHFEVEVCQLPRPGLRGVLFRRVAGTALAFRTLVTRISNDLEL
# Sequence of RPS6KA3 KD1 KD2 (human) (P51812 whole entry, looked up): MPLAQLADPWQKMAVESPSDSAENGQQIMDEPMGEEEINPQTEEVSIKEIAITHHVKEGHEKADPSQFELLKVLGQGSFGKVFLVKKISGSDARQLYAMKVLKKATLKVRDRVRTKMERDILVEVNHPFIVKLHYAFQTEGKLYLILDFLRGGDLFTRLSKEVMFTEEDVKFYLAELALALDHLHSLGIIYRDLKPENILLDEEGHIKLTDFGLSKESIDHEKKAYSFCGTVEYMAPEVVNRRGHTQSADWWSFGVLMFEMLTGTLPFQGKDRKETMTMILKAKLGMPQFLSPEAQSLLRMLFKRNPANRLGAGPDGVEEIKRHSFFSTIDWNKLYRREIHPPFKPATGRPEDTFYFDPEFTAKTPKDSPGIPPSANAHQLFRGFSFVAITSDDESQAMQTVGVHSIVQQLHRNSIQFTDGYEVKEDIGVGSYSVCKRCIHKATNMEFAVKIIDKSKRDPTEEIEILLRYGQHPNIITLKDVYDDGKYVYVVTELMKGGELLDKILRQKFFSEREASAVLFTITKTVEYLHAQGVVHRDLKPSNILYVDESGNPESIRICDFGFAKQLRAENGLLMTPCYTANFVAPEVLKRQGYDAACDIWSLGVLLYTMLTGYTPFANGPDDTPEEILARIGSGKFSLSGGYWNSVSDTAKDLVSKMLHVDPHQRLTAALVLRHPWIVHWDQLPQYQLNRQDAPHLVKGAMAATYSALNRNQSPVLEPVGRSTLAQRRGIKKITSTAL
# Sequence of PIM1 (human) (P11309 whole entry, looked up): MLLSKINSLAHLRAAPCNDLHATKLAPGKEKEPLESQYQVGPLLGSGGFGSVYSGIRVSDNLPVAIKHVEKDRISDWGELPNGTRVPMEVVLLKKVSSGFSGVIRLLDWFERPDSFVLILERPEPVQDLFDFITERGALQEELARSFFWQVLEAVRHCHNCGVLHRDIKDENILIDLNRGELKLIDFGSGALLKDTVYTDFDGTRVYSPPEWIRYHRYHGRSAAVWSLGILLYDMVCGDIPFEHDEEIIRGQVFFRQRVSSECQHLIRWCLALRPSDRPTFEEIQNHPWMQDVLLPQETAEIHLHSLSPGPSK
# Sequence of IRAK4 (human) (Q9NWZ3 whole entry, looked up): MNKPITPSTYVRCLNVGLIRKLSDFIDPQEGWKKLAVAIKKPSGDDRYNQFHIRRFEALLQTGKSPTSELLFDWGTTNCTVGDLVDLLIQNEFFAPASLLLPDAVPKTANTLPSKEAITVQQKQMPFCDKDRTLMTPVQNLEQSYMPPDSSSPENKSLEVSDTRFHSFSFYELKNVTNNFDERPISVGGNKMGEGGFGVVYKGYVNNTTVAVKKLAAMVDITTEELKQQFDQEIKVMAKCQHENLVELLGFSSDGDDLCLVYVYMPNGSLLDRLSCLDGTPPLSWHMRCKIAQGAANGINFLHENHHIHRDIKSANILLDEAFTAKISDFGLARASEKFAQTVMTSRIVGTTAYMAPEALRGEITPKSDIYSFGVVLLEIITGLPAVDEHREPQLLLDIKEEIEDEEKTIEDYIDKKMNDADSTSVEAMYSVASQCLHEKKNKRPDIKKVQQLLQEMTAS
# Sequence of AURKA (human) (O14965 whole entry, looked up): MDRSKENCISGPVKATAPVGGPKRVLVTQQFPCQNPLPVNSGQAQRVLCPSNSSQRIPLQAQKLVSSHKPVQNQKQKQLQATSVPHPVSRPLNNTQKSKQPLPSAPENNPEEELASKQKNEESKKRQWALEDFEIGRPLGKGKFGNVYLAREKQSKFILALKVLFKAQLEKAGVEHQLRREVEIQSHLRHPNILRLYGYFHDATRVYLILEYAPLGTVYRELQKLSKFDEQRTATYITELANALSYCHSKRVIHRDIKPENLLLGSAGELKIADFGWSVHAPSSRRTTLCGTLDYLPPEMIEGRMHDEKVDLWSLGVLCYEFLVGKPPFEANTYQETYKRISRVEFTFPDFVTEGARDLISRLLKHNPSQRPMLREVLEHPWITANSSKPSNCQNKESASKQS
# Sequence of INSR (human) (P06213 whole entry, looked up): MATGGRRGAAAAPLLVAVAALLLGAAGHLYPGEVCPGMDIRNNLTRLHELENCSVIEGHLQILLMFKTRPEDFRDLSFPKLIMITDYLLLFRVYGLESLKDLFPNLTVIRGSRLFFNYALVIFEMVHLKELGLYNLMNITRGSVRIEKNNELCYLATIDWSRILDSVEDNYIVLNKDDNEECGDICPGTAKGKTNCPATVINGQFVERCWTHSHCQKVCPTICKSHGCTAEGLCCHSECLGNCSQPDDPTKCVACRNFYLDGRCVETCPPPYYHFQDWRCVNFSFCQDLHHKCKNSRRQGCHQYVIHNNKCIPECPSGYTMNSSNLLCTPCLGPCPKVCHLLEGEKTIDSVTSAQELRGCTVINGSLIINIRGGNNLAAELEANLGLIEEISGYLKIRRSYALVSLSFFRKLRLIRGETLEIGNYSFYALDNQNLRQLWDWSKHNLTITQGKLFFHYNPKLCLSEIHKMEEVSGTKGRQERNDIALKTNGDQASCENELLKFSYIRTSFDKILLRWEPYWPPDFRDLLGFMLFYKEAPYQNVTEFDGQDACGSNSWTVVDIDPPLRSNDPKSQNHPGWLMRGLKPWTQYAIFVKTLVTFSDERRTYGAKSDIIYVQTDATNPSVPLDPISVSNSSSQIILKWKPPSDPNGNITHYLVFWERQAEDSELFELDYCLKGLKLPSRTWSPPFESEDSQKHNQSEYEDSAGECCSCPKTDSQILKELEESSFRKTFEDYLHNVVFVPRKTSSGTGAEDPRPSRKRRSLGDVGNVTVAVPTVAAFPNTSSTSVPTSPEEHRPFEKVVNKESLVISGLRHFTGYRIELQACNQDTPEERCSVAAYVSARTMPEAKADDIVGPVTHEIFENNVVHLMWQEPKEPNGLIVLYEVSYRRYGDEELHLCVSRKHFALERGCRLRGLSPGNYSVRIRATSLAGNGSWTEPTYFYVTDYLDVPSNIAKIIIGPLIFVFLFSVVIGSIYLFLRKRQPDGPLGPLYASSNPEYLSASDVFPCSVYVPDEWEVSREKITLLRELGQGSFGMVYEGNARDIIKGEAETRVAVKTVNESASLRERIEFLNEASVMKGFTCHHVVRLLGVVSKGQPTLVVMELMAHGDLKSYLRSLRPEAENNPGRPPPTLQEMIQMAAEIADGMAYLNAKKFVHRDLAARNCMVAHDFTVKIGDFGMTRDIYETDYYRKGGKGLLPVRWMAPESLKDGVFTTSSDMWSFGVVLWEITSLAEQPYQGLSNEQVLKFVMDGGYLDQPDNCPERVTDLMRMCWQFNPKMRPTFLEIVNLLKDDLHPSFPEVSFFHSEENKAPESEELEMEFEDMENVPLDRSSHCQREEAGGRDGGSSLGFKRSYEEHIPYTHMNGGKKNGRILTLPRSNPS
compound,measurement,setting,value
C=CC(=O)N1CCC[C@@H](n2nc(-c3ccc(Oc4ccccc4)cc3)c3c(N)ncnc32)C1,residual activity,BRSK1 (human); compound 10.0 µM,49%
same,residual activity,MAP3K11 (human); compound 0.1 µM,87%
same,residual activity,MAP3K11 (human); compound 1.0 µM,65%
same,residual activity,MAP3K11 (human); compound 10.0 µM,28%
same,residual activity,FLT1 (human); compound 0.1 µM,40%
same,residual activity,FLT1 (human); compound 1.0 µM,7%
same,residual activity,FLT1 (human); compound 10.0 µM,2%
same,residual activity,FGFR1 (human); compound 0.1 µM,52%
same,residual activity,FGFR1 (human); compound 1.0 µM,24%
same,residual activity,FGFR1 (human); compound 10.0 µM,15%
same,residual activity,RPS6KA3 KD1 KD2 (human); compound 0.1 µM,103%
same,residual activity,RPS6KA3 KD1 KD2 (human); compound 1.0 µM,106%
same,residual activity,RPS6KA3 KD1 KD2 (human); compound 10.0 µM,68%
same,residual activity,MAP3K7 TAB1 (human); compound 0.1 µM,102%
same,residual activity,MAP3K7 TAB1 (human); compound 1.0 µM,106%
same,residual activity,MAP3K7 TAB1 (human); compound 10.0 µM,66%
same,residual activity,MARK4 (human); compound 0.1 µM,111%
same,residual activity,MARK4 (human); compound 1.0 µM,114%
same,residual activity,MARK4 (human); compound 10.0 µM,80%
same,residual activity,INSRR (human); compound 0.1 µM,94%
same,residual activity,INSRR (human); compound 1.0 µM,101%
same,residual activity,INSRR (human); compound 10.0 µM,29%
same,residual activity,MAPK8 (human); compound 0.1 µM,98%
same,residual activity,MAPK8 (human); compound 1.0 µM,98%
same,residual activity,MAPK8 (human); compound 10.0 µM,75%
same,residual activity,MAPK12 (human); compound 0.1 µM,89%
same,residual activity,MAPK12 (human); compound 1.0 µM,112%
same,residual activity,RIPK2 (human); compound 0.1 µM,21%
same,residual activity,RIPK2 (human); compound 1.0 µM,5%
same,residual activity,RIPK2 (human); compound 10.0 µM,2%
same,residual activity,EPHA4 (human); compound 1.0 µM,92%
same,residual activity,EPHA4 (human); compound 10.0 µM,45%
same,residual activity,MYLK (human); compound 0.1 µM,79%
same,residual activity,MYLK (human); compound 1.0 µM,90%
same,residual activity,MYLK (human); compound 10.0 µM,44%
same,residual activity,INSR (human); compound 0.1 µM,77%
same,residual activity,INSR (human); compound 10.0 µM,31%
same,residual activity,CSNK1D (human); compound 0.1 µM,98%
same,residual activity,CSNK1D (human); compound 1.0 µM,111%
same,residual activity,CSNK1D (human); compound 10.0 µM,115%
same,residual activity,BRSK2 (human); compound 0.1 µM,100%
same,residual activity,BRSK2 (human); compound 1.0 µM,91%
same,residual activity,BRSK2 (human); compound 10.0 µM,61%
same,residual activity,SYK (human); compound 0.1 µM,90%
same,residual activity,SYK (human); compound 1.0 µM,100%
same,residual activity,SYK (human); compound 10.0 µM,52%
same,residual activity,PLK1 (human); compound 0.1 µM,88%
same,residual activity,PLK1 (human); compound 1.0 µM,95%
same,residual activity,PLK1 (human); compound 10.0 µM,76%
same,residual activity,PIM3 (human); compound 0.1 µM,94%
same,residual activity,PIM3 (human); compound 1.0 µM,96%
same,residual activity,PIM3 (human); compound 10.0 µM,88%
same,residual activity,CDK2 CCNA2 (human); compound 0.1 µM,89%
same,residual activity,CDK2 CCNA2 (human); compound 1.0 µM,99%
same,residual activity,CDK2 CCNA2 (human); compound 10.0 µM,84%
same,residual activity,[1]; compound 0.1 µM,95%
same,residual activity,[1]; compound 1.0 µM,107%
same,residual activity,[1]; compound 10.0 µM,84%
same,residual activity,PIM1 (human); compound 0.1 µM,98%
same,residual activity,PIM1 (human); compound 1.0 µM,95%
same,residual activity,PIM1 (human); compound 10.0 µM,81%
same,residual activity,MAP2K2 (human); compound 0.1 µM,94%
same,residual activity,MAP2K2 (human); compound 1.0 µM,94%
same,residual activity,MAP2K2 (human); compound 10.0 µM,63%
same,residual activity,[2]; compound 0.1 µM,93%
same,residual activity,[2]; compound 1.0 µM,86%
same,residual activity,[2]; compound 10.0 µM,66%
same,residual activity,[3]; compound 0.1 µM,87%
same,residual activity,[3]; compound 1.0 µM,72%
same,residual activity,[3]; compound 10.0 µM,55%
same,residual activity,CSK (human); compound 0.1 µM,25%
same,residual activity,CSK (human); compound 1.0 µM,15%
same,residual activity,CSK (human); compound 10.0 µM,3%
same,residual activity,MAPKAPK3 (human); compound 0.1 µM,109%
same,residual activity,MAPKAPK3 (human); compound 1.0 µM,109%
same,residual activity,EPHB2 (human); compound 0.1 µM,102%
same,residual activity,EPHB2 (human); compound 1.0 µM,65%
same,residual activity,EPHB2 (human); compound 10.0 µM,11%
same,residual activity,JAK2 JH1 JH2 (human); compound 0.1 µM,90%
same,residual activity,JAK2 JH1 JH2 (human); compound 1.0 µM,103%
same,residual activity,JAK2 JH1 JH2 (human); compound 10.0 µM,83%
same,residual activity,TTK (human); compound 0.1 µM,95%
same,residual activity,TTK (human); compound 1.0 µM,101%
same,residual activity,TTK (human); compound 10.0 µM,82%
same,residual activity,MELK (human); compound 0.1 µM,69%
same,residual activity,MELK (human); compound 10.0 µM,56%
same,residual activity,IRAK4 (human); compound 0.1 µM,103%
same,residual activity,IRAK4 (human); compound 1.0 µM,102%
same,residual activity,IRAK4 (human); compound 10.0 µM,86%
same,residual activity,AURKA (human); compound 0.1 µM,92%
same,residual activity,AURKA (human); compound 1.0 µM,57%
same,residual activity,AURKA (human); compound 10.0 µM,10%
same,residual activity,TBK1 (human); compound 0.1 µM,102%
same,residual activity,TBK1 (human); compound 1.0 µM,113%
same,residual activity,TBK1 (human); compound 10.0 µM,90%
Cc1cc(N=Nc2cc(S(=O)(=O)O)c(C)cc2C)c(N)cc1O,residual activity,BRSK1 (human); compound 100.0 µM,76%
same,residual activity,MAP3K11 (human); compound 100.0 µM,83%
same,residual activity,FLT1 (human); compound 100.0 µM,62%
same,residual activity,FGFR1 (human); compound 100.0 µM,59%
same,residual activity,RPS6KA3 KD1 KD2 (human); compound 100.0 µM,80%
same,residual activity,MAP3K7 TAB1 (human); compound 100.0 µM,31%
same,residual activity,MARK4 (human); compound 100.0 µM,81%
same,residual activity,INSRR (human); compound 100.0 µM,103%
same,residual activity,MAPK8 (human); compound 100.0 µM,113%
same,residual activity,MAPK12 (human); compound 100.0 µM,108%
same,residual activity,RIPK2 (human); compound 100.0 µM,46%
same,residual activity,EPHA4 (human); compound 100.0 µM,92%
same,residual activity,MYLK (human); compound 100.0 µM,97%
same,residual activity,INSR (human); compound 100.0 µM,141%
same,residual activity,BRSK2 (human); compound 100.0 µM,46%
same,residual activity,SYK (human); compound 100.0 µM,103%
same,residual activity,PLK1 (human); compound 100.0 µM,79%
same,residual activity,PIM3 (human); compound 100.0 µM,45%
same,residual activity,CDK2 CCNA2 (human); compound 100.0 µM,94%
same,residual activity,[1]; compound 100.0 µM,52%
same,residual activity,PIM1 (human); compound 100.0 µM,62%
same,residual activity,MAP2K2 (human); compound 100.0 µM,109%
same,residual activity,[2]; compound 100.0 µM,102%
same,residual activity,[3]; compound 100.0 µM,100%
same,residual activity,CSK (human); compound 100.0 µM,132%
same,residual activity,MAPKAPK3 (human); compound 100.0 µM,62%
same,residual activity,EPHB2 (human); compound 100.0 µM,96%
same,residual activity,JAK2 JH1 JH2 (human); compound 100.0 µM,71%
same,residual activity,TTK (human); compound 100.0 µM,90%
same,residual activity,MELK (human); compound 100.0 µM,87%
same,residual activity,AURKA (human); compound 100.0 µM,32%
same,residual activity,TBK1 (human); compound 100.0 µM,94%

# Source: the kinase profiling compilation of Christmann-Franck et al. (2016)
